Laboratory results taken from ChEMBL document CHEMBL5058645, “Data for DCP probe JNJ-6204” (2022).

Legend:
[1] = molecular target: D(4) dopamine receptor (Homo sapiens) (UniProt P21917); conditions: Compound concentration 10.0 uM, tested as the 2H-labelled form
[2] = molecular target: Cyclin-dependent kinase 5 (Homo sapiens) (UniProt Q00535); assay: CDK5/p35(h) Kinase panel; conditions: Compound concentration 1.0 uM, tested as the 2H-labelled form
[3] = molecular target: Tyrosine-protein kinase FRK (Homo sapiens) (UniProt P42685); assay: PTK5(h) Kinase panel; conditions: Compound concentration 1.0 uM, tested as the 2H-labelled form
Tyrosine-protein kinase FRK (Homo sapiens), sequence (P42685 whole entry): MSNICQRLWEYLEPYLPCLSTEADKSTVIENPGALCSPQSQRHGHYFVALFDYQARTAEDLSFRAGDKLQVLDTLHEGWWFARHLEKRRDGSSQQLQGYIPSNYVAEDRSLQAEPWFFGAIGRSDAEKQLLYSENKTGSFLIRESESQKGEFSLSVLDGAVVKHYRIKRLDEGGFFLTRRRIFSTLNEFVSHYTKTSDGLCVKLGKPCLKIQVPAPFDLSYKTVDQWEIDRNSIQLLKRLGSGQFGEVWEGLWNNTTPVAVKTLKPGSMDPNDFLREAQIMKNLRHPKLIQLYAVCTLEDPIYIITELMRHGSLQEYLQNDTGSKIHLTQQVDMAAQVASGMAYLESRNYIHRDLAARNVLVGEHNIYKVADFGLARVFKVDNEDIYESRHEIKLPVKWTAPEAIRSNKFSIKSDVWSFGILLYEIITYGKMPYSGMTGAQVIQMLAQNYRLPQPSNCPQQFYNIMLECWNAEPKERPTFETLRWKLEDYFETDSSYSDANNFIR

[4] = molecular target: Calcium/calmodulin-dependent protein kinase kinase 2 (Homo sapiens) (UniProt Q96RR4); assay: CaMKK2(h) Kinase panel; conditions: Compound concentration 1.0 uM, tested as the 2H-labelled form
[5] = molecular target: Cyclin-dependent kinase 13 (Homo sapiens) (UniProt Q14004); assay: CDK13/cyclinK(h) Kinase panel; conditions: Compound concentration 1.0 uM, tested as the 2H-labelled form
[6] = molecular target: Serine/threonine-protein kinase ULK1 (Homo sapiens) (UniProt O75385); assay: ULK1(h) Kinase panel; conditions: Compound concentration 1.0 uM, tested as the 2H-labelled form
[7] = molecular target: Interleukin-1 receptor-associated kinase 4 (Homo sapiens) (UniProt Q9NWZ3); assay: IRAK4(h) Kinase panel; conditions: Compound concentration 1.0 uM, tested as the 2H-labelled form
[8] = molecular target: Platelet-derived growth factor receptor beta (Homo sapiens) (UniProt P09619); assay: PDGFRbeta(h) Kinase panel; conditions: Compound concentration 1.0 uM, tested as the 2H-labelled form
[9] = molecular target: Serine/threonine-protein kinase TBK1 (Homo sapiens) (UniProt Q9UHD2); assay: TBK1(h) Kinase panel; conditions: Compound concentration 1.0 uM, tested as the 2H-labelled form
[10] = molecular target: Calcium/calmodulin-dependent protein kinase type 1 (Homo sapiens) (UniProt Q14012); assay: CaMKI(h) Kinase panel; conditions: Compound concentration 1.0 uM, tested as the 2H-labelled form
[11] = molecular target: Myosin light chain kinase (Homo sapiens) (UniProt Q32MK0); assay: MLCK(h) Kinase panel; conditions: Compound concentration 1.0 uM, tested as the 2H-labelled form
[12] = molecular target: STE20/SPS1-related proline-alanine-rich protein kinase (Homo sapiens) (UniProt Q9UEW8); assay: STK39(h) Kinase panel; conditions: Compound concentration 1.0 uM, tested as the 2H-labelled form
[13] = molecular target: Protein kinase C theta type (Homo sapiens) (UniProt Q04759); assay: PKCtheta (h) Kinase panel; conditions: Compound concentration 1.0 uM, tested as the 2H-labelled form
[14] = molecular target: 5-hydroxytryptamine receptor 2B (Homo sapiens) (UniProt P41595); conditions: Compound concentration 10.0 uM, tested as the 2H-labelled form
5-hydroxytryptamine receptor 2B (Homo sapiens), sequence (P41595 whole entry): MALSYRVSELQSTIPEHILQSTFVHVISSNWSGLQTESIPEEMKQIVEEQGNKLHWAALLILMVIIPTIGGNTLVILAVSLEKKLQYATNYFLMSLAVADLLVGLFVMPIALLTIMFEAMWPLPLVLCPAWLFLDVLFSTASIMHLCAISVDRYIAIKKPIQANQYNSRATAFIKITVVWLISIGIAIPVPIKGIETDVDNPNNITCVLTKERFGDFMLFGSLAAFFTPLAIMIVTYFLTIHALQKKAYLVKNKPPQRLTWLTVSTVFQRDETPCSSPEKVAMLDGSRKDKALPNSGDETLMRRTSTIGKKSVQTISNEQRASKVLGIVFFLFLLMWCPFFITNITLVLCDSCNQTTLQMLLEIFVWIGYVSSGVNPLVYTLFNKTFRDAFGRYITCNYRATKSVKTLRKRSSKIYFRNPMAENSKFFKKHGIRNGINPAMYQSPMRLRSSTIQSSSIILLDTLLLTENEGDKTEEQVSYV

[15] = molecular target: Serine/threonine-protein kinase 32A (Homo sapiens) (UniProt Q8WU08); assay: STK32A(h) Kinase panel; conditions: Compound concentration 1.0 uM, tested as the 2H-labelled form
[16] = molecular target: Serine/threonine-protein kinase Nek4 (Homo sapiens) (UniProt P51957); assay: NEK4(h) Kinase panel; conditions: Compound concentration 1.0 uM, tested as the 2H-labelled form
[17] = molecular target: Tyrosine-protein kinase receptor TYRO3 (Homo sapiens) (UniProt Q06418); assay: Rse(h) Kinase panel; conditions: Compound concentration 1.0 uM, tested as the 2H-labelled form
Tyrosine-protein kinase receptor TYRO3 (Homo sapiens), sequence (Q06418 whole entry): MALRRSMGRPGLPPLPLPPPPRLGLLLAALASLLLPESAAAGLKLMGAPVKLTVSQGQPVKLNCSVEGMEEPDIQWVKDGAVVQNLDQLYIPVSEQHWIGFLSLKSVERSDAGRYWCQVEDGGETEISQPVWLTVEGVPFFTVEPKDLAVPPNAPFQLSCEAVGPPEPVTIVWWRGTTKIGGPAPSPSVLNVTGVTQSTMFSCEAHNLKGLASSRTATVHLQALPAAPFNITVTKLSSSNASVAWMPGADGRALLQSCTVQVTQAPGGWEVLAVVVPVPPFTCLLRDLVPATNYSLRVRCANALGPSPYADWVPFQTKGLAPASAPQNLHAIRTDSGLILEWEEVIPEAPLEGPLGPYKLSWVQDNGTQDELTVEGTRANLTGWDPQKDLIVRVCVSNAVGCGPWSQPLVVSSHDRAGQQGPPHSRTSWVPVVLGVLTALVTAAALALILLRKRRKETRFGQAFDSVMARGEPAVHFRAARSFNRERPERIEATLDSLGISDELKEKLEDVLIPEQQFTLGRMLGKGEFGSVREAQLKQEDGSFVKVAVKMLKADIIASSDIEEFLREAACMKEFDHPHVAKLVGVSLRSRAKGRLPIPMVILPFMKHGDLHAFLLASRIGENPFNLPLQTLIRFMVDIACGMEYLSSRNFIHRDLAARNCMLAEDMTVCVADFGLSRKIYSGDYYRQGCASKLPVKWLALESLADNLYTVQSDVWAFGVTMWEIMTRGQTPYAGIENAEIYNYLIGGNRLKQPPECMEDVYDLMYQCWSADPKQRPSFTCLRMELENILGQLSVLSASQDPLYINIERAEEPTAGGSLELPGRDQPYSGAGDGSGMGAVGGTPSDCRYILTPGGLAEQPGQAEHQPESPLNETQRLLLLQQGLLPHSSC

[18] = molecular target: 5-hydroxytryptamine receptor 7 (Homo sapiens) (UniProt P34969); conditions: Compound concentration 10.0 uM, tested as the 2H-labelled form
[19] = molecular target: Serine/threonine-protein kinase mTOR (Homo sapiens) (UniProt P42345); assay: mTOR(h) Kinase panel; conditions: Compound concentration 1.0 uM, tested as the 2H-labelled form
[20] = molecular target: Serine/threonine-protein kinase PAK 2 (Homo sapiens) (UniProt Q13177); assay: PAK2(h) Kinase panel; conditions: Compound concentration 1.0 uM, tested as the 2H-labelled form
[21] = molecular target: Protein kinase C zeta type (Homo sapiens) (UniProt Q05513); assay: PKCzeta(h) Kinase panel; conditions: Compound concentration 1.0 uM, tested as the 2H-labelled form
[22] = molecular target: Cytoplasmic tyrosine-protein kinase BMX (Homo sapiens) (UniProt P51813); assay: Bmx(h) Kinase panel; conditions: Compound concentration 1.0 uM, tested as the 2H-labelled form
Cytoplasmic tyrosine-protein kinase BMX (Homo sapiens), sequence (P51813 whole entry): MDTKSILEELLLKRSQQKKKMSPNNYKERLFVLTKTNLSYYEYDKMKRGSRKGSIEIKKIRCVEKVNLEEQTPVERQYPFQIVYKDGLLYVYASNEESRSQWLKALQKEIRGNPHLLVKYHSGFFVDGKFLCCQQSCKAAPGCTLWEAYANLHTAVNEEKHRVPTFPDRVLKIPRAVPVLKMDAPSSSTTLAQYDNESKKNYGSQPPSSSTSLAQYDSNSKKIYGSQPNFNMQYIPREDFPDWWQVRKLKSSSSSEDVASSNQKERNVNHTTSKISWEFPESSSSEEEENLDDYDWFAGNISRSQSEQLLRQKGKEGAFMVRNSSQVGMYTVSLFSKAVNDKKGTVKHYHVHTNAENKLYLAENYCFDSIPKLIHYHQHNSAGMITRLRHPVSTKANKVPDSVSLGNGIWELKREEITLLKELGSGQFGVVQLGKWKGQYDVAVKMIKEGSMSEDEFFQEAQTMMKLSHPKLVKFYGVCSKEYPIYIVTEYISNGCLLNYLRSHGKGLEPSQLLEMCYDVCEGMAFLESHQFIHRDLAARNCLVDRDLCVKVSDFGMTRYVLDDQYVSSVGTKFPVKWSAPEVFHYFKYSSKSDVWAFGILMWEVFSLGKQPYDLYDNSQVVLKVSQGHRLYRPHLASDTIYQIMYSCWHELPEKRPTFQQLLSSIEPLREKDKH

[23] = molecular target: Protein-tyrosine kinase 6 (Homo sapiens) (UniProt Q13882); assay: BRK(h) Kinase panel; conditions: Compound concentration 1.0 uM, tested as the 2H-labelled form
[24] = molecular target: Calcium/calmodulin-dependent protein kinase type 1D (Homo sapiens) (UniProt Q8IU85); assay: CaMKIdelta(h) Kinase panel; conditions: Compound concentration 1.0 uM, tested as the 2H-labelled form
[25] = molecular target: NT-3 growth factor receptor (Homo sapiens) (UniProt Q16288); assay: TrkC(h) Kinase panel; conditions: Compound concentration 1.0 uM, tested as the 2H-labelled form
[26] = molecular target: Cyclin-dependent kinase 7 (Homo sapiens) (UniProt P50613); assay: CDK7/cyclinH/MAT1(h) Kinase panel; conditions: Compound concentration 1.0 uM, tested as the 2H-labelled form
[27] = molecular target: 5-hydroxytryptamine receptor 3A (Homo sapiens) (UniProt P46098); conditions: Compound concentration 10.0 uM, tested as the 2H-labelled form
5-hydroxytryptamine receptor 3A (Homo sapiens), sequence (P46098 whole entry): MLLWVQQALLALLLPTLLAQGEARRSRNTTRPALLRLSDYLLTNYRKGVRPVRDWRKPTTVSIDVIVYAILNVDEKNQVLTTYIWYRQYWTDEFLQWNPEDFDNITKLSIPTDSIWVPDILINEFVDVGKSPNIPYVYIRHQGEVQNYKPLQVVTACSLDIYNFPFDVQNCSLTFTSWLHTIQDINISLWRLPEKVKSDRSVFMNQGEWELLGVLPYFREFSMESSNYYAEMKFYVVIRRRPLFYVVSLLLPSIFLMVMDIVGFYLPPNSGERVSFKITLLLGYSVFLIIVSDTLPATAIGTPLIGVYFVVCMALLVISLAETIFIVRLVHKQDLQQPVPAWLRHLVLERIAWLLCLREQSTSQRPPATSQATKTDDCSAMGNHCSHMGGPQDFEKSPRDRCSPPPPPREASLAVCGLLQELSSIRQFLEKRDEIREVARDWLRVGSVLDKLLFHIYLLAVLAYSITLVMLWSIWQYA

[28] = molecular target: Tyrosine-protein kinase JAK3 (Homo sapiens) (UniProt P52333); assay: JAK3(h) Kinase panel; conditions: Compound concentration 1.0 uM, tested as the 2H-labelled form
D(3) dopamine receptor = D(3) dopamine receptor (Homo sapiens, UniProt P35462); conditions: Compound concentration 10.0 uM, tested as the 2H-labelled form
[29] = molecular target: Calcium/calmodulin-dependent protein kinase type II subunit alpha (Homo sapiens) (UniProt Q9UQM7); assay: CaMKIIalpha(h) Kinase panel; conditions: Compound concentration 1.0 uM, tested as the 2H-labelled form
[30] = molecular target: Mu-type opioid receptor (Homo sapiens) (UniProt P35372); conditions: Compound concentration 10.0 uM, tested as the 2H-labelled form
[31] = molecular target: Fibroblast growth factor receptor 2 (Homo sapiens) (UniProt P21802); assay: FGFR2(h) Kinase panel; conditions: Compound concentration 1.0 uM, tested as the 2H-labelled form
[32] = molecular target: Ephrin type-A receptor 8 (Homo sapiens) (UniProt P29322); assay: EphA8(h) Kinase panel; conditions: Compound concentration 1.0 uM, tested as the 2H-labelled form
[33] = molecular target: Serine/threonine-protein kinase 32C (Homo sapiens) (UniProt Q86UX6); assay: STK32C(h) Kinase panel; conditions: Compound concentration 1.0 uM, tested as the 2H-labelled form
[34] = molecular target: Serine/threonine-protein kinase 35 (Homo sapiens) (UniProt Q8TDR2); assay: CLIK1(h) Kinase panel; conditions: Compound concentration 1.0 uM, tested as the 2H-labelled form
[35] = molecular target: 3-phosphoinositide-dependent protein kinase 1 (Homo sapiens) (UniProt O15530); assay: PDK1(h) Kinase panel; conditions: Compound concentration 1.0 uM, tested as the 2H-labelled form
[36] = molecular target: Protein kinase C beta type (Homo sapiens) (UniProt P05771); assay: PKCbetaI (h) Kinase panel; conditions: Compound concentration 1.0 uM, tested as the 2H-labelled form
Protein kinase C beta type (Homo sapiens), sequence (P05771 2-671 limits assumed): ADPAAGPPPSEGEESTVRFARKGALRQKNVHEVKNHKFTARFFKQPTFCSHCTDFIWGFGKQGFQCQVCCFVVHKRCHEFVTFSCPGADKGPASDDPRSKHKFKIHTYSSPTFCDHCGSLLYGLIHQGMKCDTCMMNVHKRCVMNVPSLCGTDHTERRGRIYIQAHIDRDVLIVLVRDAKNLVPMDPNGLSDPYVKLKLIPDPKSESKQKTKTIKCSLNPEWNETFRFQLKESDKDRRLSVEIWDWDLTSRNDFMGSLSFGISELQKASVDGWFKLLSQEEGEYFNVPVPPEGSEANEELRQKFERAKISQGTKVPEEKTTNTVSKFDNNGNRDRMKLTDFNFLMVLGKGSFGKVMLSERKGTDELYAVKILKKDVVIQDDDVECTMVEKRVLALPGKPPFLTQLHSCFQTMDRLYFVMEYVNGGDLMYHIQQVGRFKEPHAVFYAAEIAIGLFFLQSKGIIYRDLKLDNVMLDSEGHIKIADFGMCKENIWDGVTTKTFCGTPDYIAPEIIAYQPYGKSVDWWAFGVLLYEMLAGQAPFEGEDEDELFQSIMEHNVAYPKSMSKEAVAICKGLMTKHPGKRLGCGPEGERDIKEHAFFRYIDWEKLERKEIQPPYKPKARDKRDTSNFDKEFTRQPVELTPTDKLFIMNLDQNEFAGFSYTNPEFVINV

[37] = molecular target: Testis-specific serine/threonine-protein kinase 3 (Homo sapiens) (UniProt Q96PN8); assay: TSSK3(h) Kinase panel; conditions: Compound concentration 1.0 uM, tested as the 2H-labelled form
[38] = molecular target: Tyrosine-protein kinase Srms (Homo sapiens) (UniProt Q9H3Y6); assay: SRMS(h) Kinase panel; conditions: Compound concentration 1.0 uM, tested as the 2H-labelled form
[39] = molecular target: Mitogen-activated protein kinase kinase kinase 9 (Homo sapiens) (UniProt P80192); assay: MLK1(h) Kinase panel; conditions: Compound concentration 1.0 uM, tested as the 2H-labelled form
[40] = molecular target: FKBP12A/mTOR (Homo sapiens) (UniProt P62942+P42345); assay: mTOR/FKBP12(h) Kinase panel; format: protein-complex assay; conditions: Compound concentration 1.0 uM, tested as the 2H-labelled form
[41] = molecular target: Myosin light chain kinase 2, skeletal/cardiac muscle (Homo sapiens) (UniProt Q9H1R3); assay: MYLK2(h) Kinase panel; conditions: Compound concentration 1.0 uM, tested as the 2H-labelled form
Myosin light chain kinase 2, skeletal/cardiac muscle (Homo sapiens), sequence (Q9H1R3 whole entry, the tested form may be a part): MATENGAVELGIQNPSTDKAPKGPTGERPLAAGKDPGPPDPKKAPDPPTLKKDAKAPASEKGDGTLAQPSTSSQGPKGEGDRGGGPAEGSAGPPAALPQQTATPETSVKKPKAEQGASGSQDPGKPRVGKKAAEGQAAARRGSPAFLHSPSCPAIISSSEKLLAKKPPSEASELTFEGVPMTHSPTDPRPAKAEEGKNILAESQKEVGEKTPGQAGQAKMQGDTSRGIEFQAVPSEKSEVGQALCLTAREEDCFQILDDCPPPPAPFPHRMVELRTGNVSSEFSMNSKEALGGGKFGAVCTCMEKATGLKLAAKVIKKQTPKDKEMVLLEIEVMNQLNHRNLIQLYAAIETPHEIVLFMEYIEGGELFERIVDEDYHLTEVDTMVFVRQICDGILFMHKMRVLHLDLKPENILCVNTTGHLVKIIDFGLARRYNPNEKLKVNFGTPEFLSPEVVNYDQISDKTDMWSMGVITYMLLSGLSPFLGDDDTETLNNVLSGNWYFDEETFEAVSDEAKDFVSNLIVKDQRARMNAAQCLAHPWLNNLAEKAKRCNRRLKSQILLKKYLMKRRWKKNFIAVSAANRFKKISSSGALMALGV

[42] = molecular target: Discoidin domain-containing receptor 2 (Homo sapiens) (UniProt Q16832); assay: DDR2(h) Kinase panel; conditions: Compound concentration 1.0 uM, tested as the 2H-labelled form
[43] = molecular target: cGMP-dependent protein kinase 1 (Homo sapiens) (UniProt Q13976); assay: PKG1alpha (h) Kinase panel; conditions: Compound concentration 1.0 uM, tested as the 2H-labelled form
[44] = molecular target: 5-hydroxytryptamine receptor 2C (Homo sapiens) (UniProt P28335); conditions: Compound concentration 10.0 uM, tested as the 2H-labelled form
[45] = molecular target: Serine/threonine-protein kinase D1 (Homo sapiens) (UniProt Q15139); assay: PKCmu (h) Kinase panel; conditions: Compound concentration 1.0 uM, tested as the 2H-labelled form
[46] = molecular target: Serine/threonine-protein kinase/endoribonuclease IRE1 (Homo sapiens) (UniProt O75460); assay: IRE1(h) Kinase panel; conditions: Compound concentration 1.0 uM, tested as the 2H-labelled form
[47] = molecular target: RAC-alpha serine/threonine-protein kinase (Homo sapiens) (UniProt P31749); assay: PKBalpha (h) Kinase panel; conditions: Compound concentration 1.0 uM, tested as the 2H-labelled form
[48] = molecular target: Ribosomal protein S6 kinase alpha-2 (Homo sapiens) (UniProt Q15349); assay: Rsk3(h) Kinase panel; conditions: Compound concentration 1.0 uM, tested as the 2H-labelled form
Ribosomal protein S6 kinase alpha-2 (Homo sapiens), sequence (Q15349 whole entry): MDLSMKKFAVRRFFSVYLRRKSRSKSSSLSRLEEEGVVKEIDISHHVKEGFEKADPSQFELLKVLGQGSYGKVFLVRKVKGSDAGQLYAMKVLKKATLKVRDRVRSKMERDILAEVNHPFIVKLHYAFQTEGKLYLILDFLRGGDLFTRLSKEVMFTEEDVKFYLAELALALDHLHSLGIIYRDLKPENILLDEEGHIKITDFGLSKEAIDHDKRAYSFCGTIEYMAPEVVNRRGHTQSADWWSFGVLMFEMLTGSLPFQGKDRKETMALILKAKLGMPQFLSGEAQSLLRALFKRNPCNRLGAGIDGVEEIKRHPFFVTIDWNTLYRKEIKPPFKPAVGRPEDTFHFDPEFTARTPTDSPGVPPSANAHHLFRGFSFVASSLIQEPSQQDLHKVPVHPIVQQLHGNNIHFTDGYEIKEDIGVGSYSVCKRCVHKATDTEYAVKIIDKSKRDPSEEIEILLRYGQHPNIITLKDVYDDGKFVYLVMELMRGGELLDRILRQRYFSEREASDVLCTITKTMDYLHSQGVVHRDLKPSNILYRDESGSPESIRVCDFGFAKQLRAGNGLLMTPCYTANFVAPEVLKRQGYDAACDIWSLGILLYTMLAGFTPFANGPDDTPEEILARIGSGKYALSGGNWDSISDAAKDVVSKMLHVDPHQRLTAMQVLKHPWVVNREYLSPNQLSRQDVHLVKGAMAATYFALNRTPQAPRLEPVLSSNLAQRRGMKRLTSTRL

[49] = molecular target: RAC-gamma serine/threonine-protein kinase (Homo sapiens) (UniProt Q9Y243); assay: PKBgamma (h) Kinase panel; conditions: Compound concentration 1.0 uM, tested as the 2H-labelled form
[50] = molecular target: Serine/threonine-protein kinase PAK 3 (Homo sapiens) (UniProt O75914); assay: PAK3(h) Kinase panel; conditions: Compound concentration 1.0 uM, tested as the 2H-labelled form

Measured: inhibition

CC1(C)Cn2nc(-c3ccc(F)cn3)c(-c3ccnc4[nH]ncc34)c2CO1
inactive: [1] -5.66% | [2] 15% | [3] 11% | [4] -9% | [5] 0% | [6] 9% | [7] -7% | [8] -9% | [9] 24% | [10] 5% | [11] 19% | [12] 11% | [13] 9% | [14] 6.01% | [15] 9% | [16] 7% | [17] 9% | [18] -3.57% | [19] -9% | [20] -10% | [21] 5% | [22] 19% | [23] -1% | [24] -1% | [25] 23% | [26] -8% | [27] 1.04% | [28] 0% | D(3) dopamine receptor -0.66% | [29] 0% | [30] -6.9% | [31] 11% | [32] 2% | [33] 4% | [34] 13% | [35] 9% | [36] 4% | [37] 2% | [38] 6% | [39] -3% | [40] 5% | [41] 23% | [42] 8% | [43] -9% | [44] -1.69% | [45] 13% | [46] 0% | [47] 2% | [48] -7% | [49] 18% | [50] 9%
